Assay results as given in article PMC4683377, “BODIPY-Based Fluorescent Probes for Sensing Protein Surface-Hydrophobicity” (Scientific Reports, 2015).

Columns and labels:
[1] = target: T1, bovine serum albumin (BSA) (Bos taurus, UniProt P02769); test: fluorescence titration ([…] dye, protein varied); assay type: binding
T1 construct: gene ALB

apomyoglobin (ApoMb) = target: T2, apomyoglobin (ApoMb) (Equus caballus, UniProt P68082); test: fluorescence titration ([…] dye, protein varied); assay type: binding
T2 construct: gene MB; apo form (heme removed) prepared from equine myoglobin
T2 sequence (P68082 2-154): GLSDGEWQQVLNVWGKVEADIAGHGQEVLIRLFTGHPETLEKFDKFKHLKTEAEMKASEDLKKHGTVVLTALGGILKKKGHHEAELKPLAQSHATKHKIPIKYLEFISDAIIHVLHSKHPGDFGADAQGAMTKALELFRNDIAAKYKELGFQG

T1 sequence (P02769 25-607): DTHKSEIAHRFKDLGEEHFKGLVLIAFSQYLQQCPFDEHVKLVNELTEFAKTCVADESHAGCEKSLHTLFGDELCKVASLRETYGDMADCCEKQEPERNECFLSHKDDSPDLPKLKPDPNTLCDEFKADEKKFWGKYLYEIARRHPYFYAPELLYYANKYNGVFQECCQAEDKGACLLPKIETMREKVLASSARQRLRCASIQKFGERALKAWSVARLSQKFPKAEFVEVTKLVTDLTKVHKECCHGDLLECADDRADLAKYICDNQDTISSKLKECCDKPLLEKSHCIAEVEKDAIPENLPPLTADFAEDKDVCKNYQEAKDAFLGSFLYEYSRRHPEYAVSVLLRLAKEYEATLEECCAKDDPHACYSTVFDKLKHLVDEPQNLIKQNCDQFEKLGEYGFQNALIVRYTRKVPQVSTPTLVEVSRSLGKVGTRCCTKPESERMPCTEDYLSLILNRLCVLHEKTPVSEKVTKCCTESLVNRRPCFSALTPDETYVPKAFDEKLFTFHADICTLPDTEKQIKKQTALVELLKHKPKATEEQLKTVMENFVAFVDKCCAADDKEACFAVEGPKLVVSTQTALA

COCCNC1=[N+]2C(=C(c3ccc(OC)cc3)c3ccc(NCCOC)n3[B-]2(F)F)C=C1 [compound 2, HPsensor 2]
Kd [1]: 34 nM
Kd (apomyoglobin (ApoMb)): 330 nM
